Measured values as given in patent US8962844B2, “1,3,4-oxadiazole and 1,3,4-thiadiazole β-lactamase inhibitors” (priority 2012, dated 2015).
Where a name gives a salt, the structure may show the parent alone.

Legend:
[1] = system: bacterial strains that express KPC β-lactamases; assay: Standard BLI potentiation MIC / synergy MIC (sMIC) assays run in the presence of a β-lactam, KPC expressing strains; format: cell-based; conditions: more active for at least one KPC strain and/or better spectrum of activity than Avibactam; BLI in combination with a β-lactam
Summary of the method: (§1)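 Isogenic E. coli DH10B carrying cloned β-lactamase genes on pBR322-derived plasmid (blaTEM-1 promoter, tetracycline 25 μg/mL) tested by CLSI broth microdilution in CAMHB. Test compound and β-lactam each diluted and combined; MIC reported in presence of β-lactam.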

[2] = system: bacterial strains that express the class D cephalosporinase OXA-15; assay: Standard BLI potentiation MIC / synergy MIC (sMIC) assays run in the presence of a β-lactam, OXA-15 expressing strains; format: cell-based, E. coli; conditions: BLI in combination with a β-lactam; comparison with Avibactam (comparator compound CCC)
Summary of the method: as §1

Structure (SMILES) | activity and/or spectrum of activity against bacterial strains that express KPC β-lactamases, compared with Avibactam [1] | activity against bacterial strains that express the class D cephalosporinase OXA-15, compared with Avibactam [2]
O=C1N2C[C@@H](CC[C@H]2c2nnc(C3CNC3)o2)N1OS(=O)(=O)O [Compound 708, (2S,5R)-2-(5-(azetidin-3-yl)-1,3,4-oxadiazol-2-yl)-7-oxo-1,6-diazabicyclo[3.2.1]octan-6-yl hydrogen sulfate] | more active than Avibactam | more active than Avibactam
O=C1N2C[C@@H](CC[C@H]2c2nnc(COC3CNC3)o2)N1OS(=O)(=O)O [Compound 744, (2S,5R)-2-(5-((azetidin-3-yloxy)methyl)-1,3,4-oxadiazol-2-yl)-7-oxo-1,6-diazabicyclo[3.2.1]octan-6-yl hydrogen sulfate] | more active than Avibactam | more active than Avibactam
N=C(N)NCC(O)Cc1nnc([C@@H]2CC[C@@H]3CN2C(=O)N3OS(=O)(=O)O)o1 (stereo partly drawn) [Compound 730, (2S,5R)-2-(5-(3-guanidino-2-hydroxypropyl)-1,3,4-oxadiazol-2-yl)-7-oxo-1,6-diazabicyclo[3.2.1]octan-6-yl hydrogen sulfate] | more active than Avibactam | more active than Avibactam
O=C1N2C[C@@H](CC[C@H]2c2nnc(CN[C@@H]3CCNC3)o2)N1OS(=O)(=O)O [Compound 766, (2S,5R)-7-oxo-2-(5-(((R)-pyrrolidin-3-ylamino)methyl)-1,3,4-oxadiazol-2-yl)-1,6-diazabicyclo[3.2.1]octan-6-yl hydrogen sulfate] | more active than Avibactam | more active than Avibactam
O=C1N2C[C@@H](CC[C@H]2c2nnc(CCCCNC3CCNCC3)o2)N1OS(=O)(=O)O [Compound 772, (2S,5R)-7-oxo-2-(5-(4-(piperidin-4-ylamino)butyl)-1,3,4-oxadiazol-2-yl)-1,6-diazabicyclo[3.2.1]octan-6-yl hydrogen sulfate] | more active than Avibactam | more active than Avibactam
N[C@H]1C[C@@H](CCc2nnc([C@@H]3CC[C@@H]4CN3C(=O)N4OS(=O)(=O)O)o2)C1 [Compound 754, (2S,5R)-2-(5-(2-((1s,3S)-3-aminocyclobutyl)ethyl)-1,3,4-oxadiazol-2-yl)-7-oxo-1,6-diazabicyclo[3.2.1]octan-6-yl hydrogen sulfate] | more active than Avibactam | more active than Avibactam
O=C1N2C[C@@H](CC[C@H]2c2nnc([C@H]3CNCCN3)o2)N1OS(=O)(=O)O [Compound 779, (2S,5R)-7-oxo-2-(5-((R)-piperazin-2-yl)-1,3,4-oxadiazol-2-yl)-1,6-diazabicyclo[3.2.1]octan-6-yl hydrogen sulfate] | more active than Avibactam | more active than Avibactam
N[C@H]1CN[C@H](c2nnc([C@@H]3CC[C@@H]4CN3C(=O)N4OS(=O)(=O)O)o2)C1 [Compound 762, (2S,5R)-2-(5-((2S,4R)-4-aminopyrrolidin-2-yl)-1,3,4-oxadiazol-2-yl)-7-oxo-1,6-diazabicyclo[3.2.1]octan-6-yl hydrogen sulfate] | more active than Avibactam | more active than Avibactam
O=C1N2C[C@@H](CC[C@H]2c2nnc(CCNC3CNC3)o2)N1OS(=O)(=O)O [Compound 745, (2S,5R)-2-(5-(2-(azetidin-3-ylamino)ethyl)-1,3,4-oxadiazol-2-yl)-7-oxo-1,6-diazabicyclo[3.2.1]octan-6-yl hydrogen sulfate] | more active than Avibactam | more active than Avibactam
O=C1N2C[C@@H](CC[C@H]2c2nnc(CCN3CCNCC3)o2)N1OS(=O)(=O)O [Compound 776, (2S,5R)-7-oxo-2-(5-(2-(piperazin-1-yl)ethyl)-1,3,4-oxadiazol-2-yl)-1,6-diazabicyclo[3.2.1]octan-6-yl hydrogen sulfate] | more active than Avibactam | more active than Avibactam
O=C1N2C[C@@H](CC[C@H]2c2nnc(CCCNC3CCNCC3)o2)N1OS(=O)(=O)O [Compound 771, (2S,5R)-7-oxo-2-(5-(3-(piperidin-4-ylamino)propyl)-1,3,4-oxadiazol-2-yl)-1,6-diazabicyclo[3.2.1]octan-6-yl hydrogen sulfate] | more active than Avibactam | more active than Avibactam
NCCCc1nnc([C@@H]2CC[C@@H]3CN2C(=O)N3OS(=O)(=O)O)o1 [Compound 720, (2S,5R)-2-(5-(3-aminopropyl)-1,3,4-oxadiazol-2-yl)-7-oxo-1,6-diazabicyclo[3.2.1]octan-6-yl hydrogen sulfate] | more active than Avibactam | more active than Avibactam
N=C(N)N1CC(NCc2nnc([C@@H]3CC[C@@H]4CN3C(=O)N4OS(=O)(=O)O)o2)C1 [Compound 746, (2S,5R)-2-(5-(((1-carbamimidoylazetidin-3-yl)amino)methyl)-1,3,4-oxadiazol-2-yl)-7-oxo-1,6-diazabicyclo[3.2.1]octan-6-yl hydrogen sulfate] | more active than Avibactam | more active than Avibactam
N[C@H]1C[C@H](c2nnc([C@@H]3CC[C@@H]4CN3C(=O)N4OS(=O)(=O)O)o2)C1 [Compound 727, (2S,5R)-2-(5-((1r,3S)-3-aminocyclobutyl)-1,3,4-oxadiazol-2-yl)-7-oxo-1,6-diazabicyclo[3.2.1]octan-6-yl hydrogen sulfate] | more active than Avibactam | more active than Avibactam
N=C(N)NCc1nnc([C@@H]2CC[C@@H]3CN2C(=O)N3OS(=O)(=O)O)s1 [Compound 721, (2S,5R)-2-(5-(guanidinomethyl)-1,3,4-thiadiazol-2-yl)-7-oxo-1,6-diazabicyclo[3.2.1]octan-6-yl hydrogen sulfate] | more active than Avibactam | more active than Avibactam
N[C@H]1C[C@H](CCc2nnc([C@@H]3CC[C@@H]4CN3C(=O)N4OS(=O)(=O)O)o2)C1 [Compound 753, (2S,5R)-2-(5-(2-((1r,3R)-3-aminocyclobutyl)ethyl)-1,3,4-oxadiazol-2-yl)-7-oxo-1,6-diazabicyclo[3.2.1]octan-6-yl hydrogen sulfate] | more active than Avibactam | more active than Avibactam
N[C@H]1CN[C@@H](c2nnc([C@@H]3CC[C@@H]4CN3C(=O)N4OS(=O)(=O)O)o2)C1 [Compound 761, (2S,5R)-2-(5-((2R,4R)-4-aminopyrrolidin-2-yl)-1,3,4-oxadiazol-2-yl)-7-oxo-1,6-diazabicyclo[3.2.1]octan-6-yl hydrogen sulfate] | more active than Avibactam | more active than Avibactam
O=C1N2C[C@@H](CC[C@H]2c2nnc([C@H]3[C@@H]4CNC[C@@H]43)o2)N1OS(=O)(=O)O [Compound 740, (2S,5R)-2-(5-(3-azabicyclo[3.1.0]hexan-6-yl)-1,3,4-oxadiazol-2-yl)-7-oxo-1,6-diazabicyclo[3.2.1]octan-6-yl hydrogen sulfate] | more active than Avibactam | more active than Avibactam
O=C1N2C[C@@H](CC[C@H]2c2nnco2)N1OS(=O)(=O)O [Compound 701, (2S,5R)-2-(1,3,4-oxadiazol-2-yl)-7-oxo-1,6-diazabicyclo[3.2.1]octan-6-yl hydrogen sulfate] | more active than Avibactam | more active than Avibactam
